From patent publication US10682319B2, “Necrosis inhibitors” (National Institute of Biological Sciences, Beijing, priority 2014, dated 2020) come the findings set out here.

Usually EC50 stands for the concentration that produces a half-maximal response.

The subject of the test is HT-29 cells. The test is described as follows: Necrosis assay (TNF-α/Smac mimetic/z-VAD induced necrosis, cell viability by ATP level). The class given is cell-based. The settings on record: HT-29, TNF-α + Smac mimetic + z-VAD, 24 hrs, ATP level, read-out: EC50 (inhibition of necrosis in HT-29 cells). As for the experimental part: HT-29 cells were cultured in McCoy's 5 A culture medium (Invitrogen). On day one, HT-29 cells were plated in 96-well assay plates at density of 2,500-3,500 cells per well. On day two, necrosis were induced by adding 20 ng/ml TNF-α (T), 100 nM Smac mimetic (S), and […] z-VAD (Z). At the same time, […] compound from a chemical library of ˜200,000 compounds was delivered into each well. After 24 hrs treatment, cell viability was determined by measuring ATP level using the CellTiter-Glo Luminescent Cell Viability Assay kit. A CellTiter-Glo Assay (Promega) was performed according to the manufacturer's instructions Luminescence was recorded with a PerkinElmer EnSpire Multimode Plate Reader. Survived cells were normalized to those cells treated with DMSO. Nec-1 was used as a positive control for screening necrosis inhibitors. Data are represented as mean±standard deviation of duplicates
Dose-dependent inhibition of necrosis by the compounds in HT-29 cells were determined by measuring ATP levels as described above.

Where [1] appears, read: Homo sapiens, HT-29, 24 h, values given as ranges in uM.

Read-outs that look alike come from different tables or passages of the source.

For the molecule `CCC(C)(C)C(=O)NCc1cccc(Br)c1` [Compound 6, N-(3-bromobenzyl)-2,2-dimethylbutanamide], under setting [1], the EC50 was 1 to 10 µM. On to `CCC(C)(C)C(=O)N(C)Cc1cccc(Cl)c1` [Compound 18, N-(3-chlorobenzyl)-N,2,2-trimethylbutanamide], for which the EC50 (values given as ranges in nM) fell in the range of 0.001 to 1 µM. On to `CC(C)NC(=O)N(C)Cc1ccccc1F` [Compound 114, 1-(2-fluorobenzyl)-3-isopropyl-1-methylurea], for which, under setting [1], the EC50 lay within 1 to 100 µM. As for `CC(F)(F)C(C)(C)C(=O)N(O)Cc1cc(F)c(F)c(F)c1` [Compound S13], under setting [1], the EC50 is 1 to 100 µM. For the molecule `CCC(C)(C)C(=O)NC(C)c1ccccc1` (centres unmarked) [Compound 52, 2,2-dimethyl-N-(1-phenylethyl)butanamide], the EC50 under setting [1] was 1 to 100 µM. Consider `CCC(C)(C)C(=O)N(O)CC1CCCC1` [Compound 139], for which, under setting [1], the EC50 is 1 to 100 µM. With `CC(C)(C)C(=O)NCc1ccccc1` [Compound 2, N-benzylpivalamide], the EC50 under setting [1] lay within 1 to 10 µM. `CCC(C)(C)C(=O)N(C)Cc1cccs1` [Compound 40, N,2,2-trimethyl-N-(thiophen-2-ylmethyl)butanamide]: the EC50 (values given as ranges in nM) was in the range of 0.001 to 1 µM. Consider `CCC(C)(C)C(=O)N(C)Cc1ccccc1OC` [Compound 15, N-(2-methoxybenzyl)-N,2,2-trimethylbutanamide], for which, under setting [1], the EC50 was in the range of 1 to 100 µM.

Take `CCC(C)(C)C(=O)N(O)Cc1cc(F)cc(F)c1F` [Compound 93, N-hydroxy-2,2-dimethyl-N-(2,3,5-trifluorobenzyl)butanamide]: the EC50 (values given as ranges in nM) lay in the range of 0.001 to 1 µM. Consider `CN(Cc1cc(F)c(F)c(F)c1)C(=O)C1C(C)(C)C1(C)C` [Compound 81, N,2,2,3,3-pentamethyl-N-(3,4,5-trifluorobenzyl)-cyclopropanecarboxamide], for which the EC50 under setting [1] was in the range of 1 to 100 µM.

Take `CN(Cc1cc(F)cc(F)c1F)C(=O)C1(C(F)(F)F)CCCC1` [Compound 86, N-methyl-N-(2,3,5-trifluorobenzyl)-1-(trifluoromethyl)cyclopentanecarboxamide]: the half-maximal effective concentration (EC50) under setting [1] lay within 1 to 100 µM.

For `CCC(C)(C)C(=O)N(O)Cc1ccc(F)c(F)c1` [Compound 95, N-(3,4-difluorobenzyl)-N-hydroxy-2,2-dimethylbutanamide], where the note is “values given as ranges in nM”, the EC50 was in the range of 0.001 to 1 µM.

As to `CN(Cc1cc(F)cc(F)c1F)C(=O)C1(c2ccccc2)CCCC1` [Compound 87, N-methyl-1-phenyl-N-(2,3,5-trifluorobenzyl)cyclopentanecarboxamide], the EC50 under setting [1] was in the range of 1 to 100 µM. With `CCC(C)(C)C(=O)N(O)Cc1ccc(F)cc1F` [Compound 96, N-(2,4-difluorobenzyl)-N-hydroxy-2,2-dimethylbutanamide], the EC50 (values given as ranges in nM) lay in the range of 0.001 to 1 µM. Take `CCC(C)(C)C(=O)N(O)Cc1ccc(F)cc1` [Compound 94, N-(4-fluorobenzyl)-N-hydroxy-2,2-dimethylbutanamide]: the EC50 (values given as ranges in nM) is 0.001 to 1 µM. `CCC(C)(C)C(=O)N(C)Cc1ccc(Cl)cc1F` [Compound 27, N-(4-chloro-2-fluorobenzyl)-N,2,2-trimethylbutanamide]: the EC50 (values given as ranges in nM) is 0.001 to 1 µM. For `CCC(C)(C)C(=O)N(C)C(CO)c1ccccc1` (centres unmarked) [Compound 111, N-(2-hydroxy-1-phenylethyl)-N,2,2-trimethylbutanamide], the EC50 under setting [1] lay in the range of 1 to 100 µM.

Turning to `CCC(C)(C)C(=O)N(C)Cc1ccc(F)cc1F` [Compound 24, N-(2,4-difluorobenzyl)-N,2,2-trimethylbutanamide], the EC50 (values given as ranges in nM) fell in the range of 0.001 to 1 µM. For the molecule `CCC(C)(C)C(=O)N(O)Cc1cccs1` [Compound 136], the half-maximal effective concentration (EC50) under setting [1] was 1 to 100 µM. Regarding `CCC(C)(C)C(=O)N(C)CC1CCCCC1` [Compound 39, N-(cyclohexylmethyl)-N,2,2-trimethylbutanamide], the EC50 (values given as ranges in nM) is 0.001 to 1 µM.

Take `CCC(C)(C)C(=O)N[C@@H](C(=O)N(C)C)c1ccccc1` [Compound 123, (R)—N-(2-(dimethylamino)-2-oxo-1-phenylethyl)-2,2-dimethylbutanamide]: the EC50 under setting [1] was 1 to 100 µM. For `CCC(C)(C)C(=O)N(C)C(C)c1ccccc1` (centres unmarked) [Compound 53, N,2,2-trimethyl-N-(1-phenylethyl)butanamide], the EC50 under setting [1] lay within 1 to 100 µM. With `CCC(C)(C)C(=O)N(C)Cc1cccc(C(=O)OC)c1` [Compound 23, methyl 3-((N,2,2-trimethylbutanamido)methyl)benzoate], the concentration giving a half-maximal response (EC50) under setting [1] lay in the range of 1 to 100 µM. On the same count and under the same terms, for `CCC(C)(C)C(=O)NCc1ccc(F)cc1F` [Compound 7, N-(2,4-difluorobenzyl)-2,2-dimethylbutanamide] the value was 1 to 10 µM; for `CCC(C)(C)C(=O)NCc1ccccc1Br` [Compound 3, N-(2-bromobenzyl)-2,2-dimethylbutanamide], 1 to 10 µM. Regarding `CCC(C)(C)C(=O)N(C)Cc1ccncc1` [Compound 34, N,2,2-trimethyl-N-(pyridin-4-ylmethyl)butanamide], the EC50 under setting [1] was 1 to 100 µM. Same read-out and setting: the figure for `CCC1(C(=O)N(C)Cc2cc(F)c(F)c(F)c2)CCC1` [Compound 88, 1-ethyl-N-methyl-N-(3,4,5-trifluorobenzyl)cyclobutanecarboxamide] is 1 to 100 µM.

As to `CCC(C)(C)C(=O)N[C@@H](C(=O)NC)c1ccccc1` [Compound 122, (R)-2,2-dimethyl-N-(2-(methylamino)-2-oxo-1-phenylethyl)butanamide], under setting [1], the EC50 is 1 to 100 µM.

Regarding `CN(Cc1cc(F)cc(F)c1F)C(=O)C12CC3CC(CC(C3)C1)C2` [Compound 76, N-methyl-N-(2,3,5-trifluorobenzyl)adamantane-1-carboxamide], the concentration giving a half-maximal response (EC50) under setting [1] lay within 1 to 100 µM. In the case of `CCC(C)(C)C(=O)N(CCC(C)=O)Cc1ccccc1F` [Compound 12, N-(2-fluorobenzyl)-2,2-dimethyl-N-(3-oxobutyl)butanamide], under setting [1], the EC50 was 1 to 10 µM.

Consider `CC(F)(F)C(C)(C)C(=O)N(O)Cc1cc(F)c(F)cc1F` [Compound S12], for which the EC50 under setting [1] is 1 to 100 µM.

Take `CON(Cc1ccc(F)cc1)C(=O)C(C)(C)C(C)(F)F` [Compound S15]: under setting [1], the EC50 is 1 to 100 µM. Consider `CCC(C)(C)C(=O)N(C)Cc1sccc1C` [Compound 41, N,2,2-trimethyl-N-((3-methylthiophen-2-yl)methyl)butanamide], for which the EC50 under setting [1] fell in the range of 1 to 10 µM. Consider `CCC(C)(C)C(=O)N(Cc1ccc(F)cc1F)OC` [Compound 131], for which, under setting [1], the EC50 was in the range of 1 to 100 µM.

For `COCC(C)(C)C(=O)N(C)Cc1cc(F)c(F)c(F)c1` [Compound 71, 3-methoxy-N,2,2-trimethyl-N-(3,4,5-trifluorobenzyl)propanamide], the EC50 under setting [1] was in the range of 1 to 100 µM. Turning to `CCC(C)(C)C(=O)N(C)C(COC)c1ccccc1` (centres unmarked) [Compound 112, N-(2-methoxy-1-phenylethyl)-N,2,2-trimethylbutanamide], the EC50 under setting [1] is 1 to 100 µM. With `CCC(C)(C)C(=O)N[C@@H](CC(=O)NCCc1ccccc1)c1ccccc1` [Compound 108, (S)-2,2-dimethyl-N-(3-oxo-3-(phenethylamino)-1-phenylpropyl)butanamide], the EC50 under setting [1] fell in the range of 1 to 100 µM. Regarding `C=CC(C)(C)C(=O)N(C)Cc1ccccc1F` [Compound 147], the EC50 under setting [1] was 1 to 100 µM. `CCC(C)(C)C(=O)N[C@@H](CC(=O)OC)c1ccccc1` [Compound 100, (S)-methyl 3-(2,2-dimethylbutanamido)-3-phenylpropanoate]: the EC50 under setting [1] was 1 to 100 µM.

Consider `CCC(C)(C)C(=O)N(C)Cc1cccc(O)c1` [Compound 21, N-(3-hydroxybenzyl)-N,2,2-trimethylbutanamide], for which, under setting [1], the EC50 was in the range of 1 to 100 µM. On to `CC(C)N(C(=O)N(C)Cc1cc(F)cc(F)c1F)C(C)C` [Compound 119, 1,1-diisopropyl-3-methyl-3-(2,3,5-trifluorobenzyl)urea], for which, under setting [1], the EC50 lay within 1 to 100 µM. `CCC(C)(C)C(=O)N(O)C(CO)c1ccccc1` (centres unmarked) [Compound 150]: under setting [1], the EC50 was in the range of 1 to 100 µM. In the case of `CN(Cc1cc(F)c(F)c(F)c1)C(=O)C1CCCC1` [Compound 85, N-methyl-N-(3,4,5-trifluorobenzyl)cyclopentanecarboxamide], under setting [1], the EC50 was in the range of 1 to 100 µM. For the molecule `CN(Cc1cc(F)cc(F)c1F)C(=O)C1(c2ccccc2)CC1` [Compound 82, N-methyl-1-phenyl-N-(2,3,5-trifluorobenzyl)cyclopropanecarboxamide], the EC50 under setting [1] fell in the range of 1 to 100 µM. With `CON(Cc1cc(F)c(F)c(F)c1)C(=O)C(C)(C)C(C)(F)F` [Compound S19], under setting [1], the EC50 was in the range of 1 to 100 µM. Regarding `CCC(C)(C)C(=O)N(Cc1ccc(F)c(F)c1)OC` [Compound 132], the EC50 under setting [1] fell in the range of 1 to 100 µM. As to `CN(Cc1ccccc1F)C(=O)CC(C)(C)C` [Compound 59, N-(2-fluorobenzyl)-N,3,3-trimethylbutanamide], the EC50 under setting [1] was 1 to 10 µM. For `CN(Cc1ccccc1F)C(=O)NC1CCCCC1` [Compound 113, 3-cyclohexyl-1-(2-fluorobenzyl)-1-methylurea], the EC50 under setting [1] lay within 1 to 100 µM. Same read-out and setting: the figure for `CCC(C)(C)C(=O)N(C)Cc1cccc(C)c1C` [Compound 31, N-(2,3-dimethylbenzyl)-N,2,2-trimethylbutanamide] is 1 to 100 µM; for `CCC(C)(C)C(=O)N(C)Cc1cnc2ccccc2c1` [Compound 47, N,2,2-trimethyl-N-(quinolin-3-ylmethyl)butanamide] it is 1 to 100 µM; for `CC(F)(F)C(C)(C)C(=O)N(O)Cc1cc(F)cc(F)c1F` [Compound S14] it is 1 to 100 µM. For `CCC(C)(C)C(=O)N(C)Cc1cccnc1` [Compound 35, N,2,2-trimethyl-N-(pyridin-3-ylmethyl)butanamide], the concentration giving a half-maximal response (EC50) under setting [1] fell in the range of 1 to 10 µM.
